Here are results for one compound from patent EP1210344B1, “HETEROPOLYCYCLIC COMPOUNDS AND THEIR USE AS METABOTROPIC GLUTAMATE RECEPTOR ANTAGONISTS” (NPS PHARMACEUTICALS, INC., priority 1999, dated 2001).

The structures appear in SMILES notation.

The assay concerns the target chimeric CaR/mGluR5d receptor (Homo sapiens, UniProt P41594). Kind of assay: CaR/mGluR5d Screening Assay (FLIPR, intracellular calcium). The conditions noted are these: HEK 293 cells expressing the chimeric CaR/mGluR5d receptor, Fluo-3 fluorescence; read-out: IC50 value in relation to CaR/mGluR5d. In kind it is cell-based. A general note: Calcium assays in cells follow changes in intracellular calcium, usually with a dye or a luminescent sensor.

chimeric CaR/mGluR5d receptor, sequence (P41594 580-876, change not shown): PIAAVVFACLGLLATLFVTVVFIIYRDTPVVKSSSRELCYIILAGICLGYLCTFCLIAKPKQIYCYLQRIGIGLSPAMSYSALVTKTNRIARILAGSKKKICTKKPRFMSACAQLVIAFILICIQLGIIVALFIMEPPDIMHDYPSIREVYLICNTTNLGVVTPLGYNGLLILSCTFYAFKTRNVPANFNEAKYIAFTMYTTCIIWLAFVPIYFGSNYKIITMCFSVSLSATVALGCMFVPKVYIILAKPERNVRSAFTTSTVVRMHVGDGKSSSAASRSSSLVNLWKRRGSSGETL
chimeric CaR/mGluR5d receptor, sequence (P41180 20-610 partner): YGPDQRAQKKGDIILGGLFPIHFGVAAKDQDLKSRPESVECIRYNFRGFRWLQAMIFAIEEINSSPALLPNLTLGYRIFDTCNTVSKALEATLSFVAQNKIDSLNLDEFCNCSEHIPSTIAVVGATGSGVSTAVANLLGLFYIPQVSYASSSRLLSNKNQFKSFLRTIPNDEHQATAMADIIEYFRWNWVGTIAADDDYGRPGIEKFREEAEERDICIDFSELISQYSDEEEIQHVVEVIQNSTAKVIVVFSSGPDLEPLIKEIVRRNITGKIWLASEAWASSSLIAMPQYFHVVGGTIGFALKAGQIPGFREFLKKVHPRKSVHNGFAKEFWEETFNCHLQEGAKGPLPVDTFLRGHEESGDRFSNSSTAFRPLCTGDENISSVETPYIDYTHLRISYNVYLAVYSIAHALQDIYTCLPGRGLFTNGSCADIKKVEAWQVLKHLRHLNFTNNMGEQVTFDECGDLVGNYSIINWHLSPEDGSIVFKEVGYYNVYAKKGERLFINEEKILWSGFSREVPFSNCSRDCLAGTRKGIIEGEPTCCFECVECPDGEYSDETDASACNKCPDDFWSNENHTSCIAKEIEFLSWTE
Protocol: HEK 293 cells expressing the chimeric CaR/mGluR5d receptor (clonal cell line hCaR/hmGluR5d_hek6) are plated 24 hours prior to assay at a density of 100,000 cells per well in Collagen I-coated 96-well black, clear bottom plates (Becton Dickenson) in DMEM supplemented with 10% FBS (Hyclone).
On the day of the assay, tissue culture medium is aspirated from the wells of a plate and 80 µL of Assay Buffer (Assay Buffer is: 20 mM HEPES, 146 mM NaCl, 5 mM KCl, 1 mM MgCl2, 1 mM CaCl2, 1 mg/ml BSA, 1 mg/ml glucose, pH 7.4) supplemented with 6 µM of the Ca^2+-sensitive dye, Fluo-3 AM (Molecular Probes) and 0.025% Pluronic (Molecular Probes) is added to each well. The plate is then incubated in the dark for 1 hour at room temperature to efficiently load the cells with Fluo-3. At the end of the incubation, extracellular Fluo-3 is removed by washing the plate with Assay buffer. Assay Buffer is added back to each well (final volume = 160 µL) prior to beginning the assay.
The plate is loaded into a FLIPR robotic device (Molecular Devices) with the laser setting at 0.8 Watts. […] Relative fluorescence intensity (excitation λ = 488 nm / emission λ = 510 nM) is monitored at relevant time intervals throughout the assay period to measure receptor activation and/or inhibition.

In the case of `N#Cc1cccc(-c2nc(-c3ccccn3)co2)c1` [B52, 2-[3-cyanophenyl]-4-[pyridin-2-yl]-1,3-oxazole], the IC50 is 45 nM.
